Source: ChEMBL document CHEMBL1201862, “PubChem BioAssay data set” (2004)
Calls of active or inactive are those of the source.

Tests used:
[1] = system: HEK293; assay: cells; type: functional, cell-based; details: Homo sapiens
[2] = system: HEK293; assay: cells; type: functional, cell-based; details: Homo sapiens; remark: listed apart in the source
[3] = system: HEK293; assay: NOD2 signaling inhibitors in MDP-stimulated cells, cell-based, uHTS, luminescence (AID 2001); type: functional; details: Homo sapiens
[4] = system: HEK293; assay: inhibition of NOD1-driven NF-kB reporter – cell-based, luminescence, uHTS, primary screen (AID 1578); type: functional; details: Homo sapiens
[5] = system: HEK293; assay: cells; type: functional, cell-based; details: Homo sapiens; remark: listed apart in the source
[6] = system: HEK293; assay: cells; details: Homo sapiens
[7] = target: T1, Tyrosine-protein phosphatase non-receptor type 7 (Homo sapiens, UniProt P35236); assay: HTS HePTP Fluorescent Assay using OMFP substrate for In Vitro dose response studies. [Related pubchem assays (depositor defined):AID1059, AID1077, AID1784, AID2068, AID2085, AID435032, AID521]; type: functional
T1 sequence (P35236 whole entry): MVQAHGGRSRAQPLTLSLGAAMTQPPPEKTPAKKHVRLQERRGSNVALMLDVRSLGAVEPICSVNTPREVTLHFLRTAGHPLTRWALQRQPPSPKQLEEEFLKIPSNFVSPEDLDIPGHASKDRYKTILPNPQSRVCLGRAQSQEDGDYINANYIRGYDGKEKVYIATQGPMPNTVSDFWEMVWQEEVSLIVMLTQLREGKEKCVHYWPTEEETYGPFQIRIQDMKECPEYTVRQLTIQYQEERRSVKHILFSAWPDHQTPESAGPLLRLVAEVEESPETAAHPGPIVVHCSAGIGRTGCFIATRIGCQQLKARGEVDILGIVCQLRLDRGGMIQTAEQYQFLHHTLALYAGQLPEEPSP

[8] = target: T2, Low molecular weight phosphotyrosine protein phosphatase (Homo sapiens, UniProt P24666); type: functional; details: read-out: IC50_Mean
[9] = target: T1, Tyrosine-protein phosphatase non-receptor type 7; type: functional
[10] = target: T3, Tyrosine-protein phosphatase non-receptor type 22 (Homo sapiens, UniProt Q9Y2R2); assay: inhibition of lymphoid tyrosine phosphatase LYP – biochemical, pCAP fluorogenic substrate, fluorescence, set 3, SAR follow-up (AID 449727); type: functional
T3 sequence (Q9Y2R2 whole entry): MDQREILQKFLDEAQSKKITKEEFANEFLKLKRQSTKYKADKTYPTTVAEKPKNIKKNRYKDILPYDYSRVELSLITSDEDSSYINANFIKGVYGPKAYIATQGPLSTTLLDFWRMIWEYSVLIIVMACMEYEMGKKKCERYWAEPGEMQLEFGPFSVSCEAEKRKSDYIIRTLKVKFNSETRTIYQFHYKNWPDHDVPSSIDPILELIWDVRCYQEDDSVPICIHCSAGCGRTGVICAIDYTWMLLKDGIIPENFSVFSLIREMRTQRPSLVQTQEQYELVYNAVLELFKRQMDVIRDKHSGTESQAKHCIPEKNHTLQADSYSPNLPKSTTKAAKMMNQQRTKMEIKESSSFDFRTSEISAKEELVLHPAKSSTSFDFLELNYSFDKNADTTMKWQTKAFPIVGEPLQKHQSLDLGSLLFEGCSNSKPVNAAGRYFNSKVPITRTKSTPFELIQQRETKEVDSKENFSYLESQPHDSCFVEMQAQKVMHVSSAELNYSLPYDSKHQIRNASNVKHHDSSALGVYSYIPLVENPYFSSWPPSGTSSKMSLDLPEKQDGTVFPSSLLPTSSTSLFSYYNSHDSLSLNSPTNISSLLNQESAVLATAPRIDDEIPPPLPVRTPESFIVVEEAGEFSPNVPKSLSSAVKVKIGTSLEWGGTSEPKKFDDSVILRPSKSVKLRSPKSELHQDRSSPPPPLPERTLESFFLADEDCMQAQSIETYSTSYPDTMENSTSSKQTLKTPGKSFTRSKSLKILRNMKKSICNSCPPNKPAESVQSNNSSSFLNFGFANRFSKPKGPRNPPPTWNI

[11] = target: T3, Tyrosine-protein phosphatase non-receptor type 22; assay: SAR LYP1 Fluorescent Assay using pCAP substrate for In Vitro dose response studies - Set 2. [Related pubchem assays (depositor defined):AID1779, AID1784, AID2135, AID449727]; type: functional
[12] = target: T4, Dual specificity protein phosphatase 3 (Homo sapiens, UniProt P51452); assay: VHR1 phosphatase inhibitors, primary screen, biochemical, absorbance, uHTS (AID 1654)
[13] = target: T3, Tyrosine-protein phosphatase non-receptor type 22; assay: PubChem AID 2140
[14] = target: T1, Tyrosine-protein phosphatase non-receptor type 7; assay: inhibition of hematopoietic tyrosine phosphatase HePTP – biochemical, set 2, SAR follow-up (AID 449736); type: functional
[15] = target: Tyrosine-protein phosphatase non-receptor type 12 (Homo sapiens, UniProt Q05209); assay: SAR Selectivity Analysis of small molecule inhibitors of PEST using pCAP in a fluorescence assay. [Related pubchem assays (depositor defined):AID1779, AID1784, AID2135]; type: functional
[16] = target: T3, Tyrosine-protein phosphatase non-receptor type 22; assay: SAR LYP1 Fluorescent Assay using OMFP substrate for In Vitro dose response studies - Set 3. [Related pubchem assays (depositor defined):AID1779, AID1784, AID2140, AID2686]; type: functional
[17] = target: T3, Tyrosine-protein phosphatase non-receptor type 22; assay: SAR LYP1 Fluorescent Assay using OMFP substrate for In Vitro dose response studies - Set 2. [Related pubchem assays (depositor defined):AID1779, AID1784, AID2140, AID449726, AID488869]; type: functional
[18] = target: T5, Dual specificity protein phosphatase 6 (Rattus norvegicus, UniProt Q64346); assay: inhibition of rat DUSP6 enzyme activity – biochemical, in vitro, primary screen (AID 425)
T5 sequence (Q64346 whole entry): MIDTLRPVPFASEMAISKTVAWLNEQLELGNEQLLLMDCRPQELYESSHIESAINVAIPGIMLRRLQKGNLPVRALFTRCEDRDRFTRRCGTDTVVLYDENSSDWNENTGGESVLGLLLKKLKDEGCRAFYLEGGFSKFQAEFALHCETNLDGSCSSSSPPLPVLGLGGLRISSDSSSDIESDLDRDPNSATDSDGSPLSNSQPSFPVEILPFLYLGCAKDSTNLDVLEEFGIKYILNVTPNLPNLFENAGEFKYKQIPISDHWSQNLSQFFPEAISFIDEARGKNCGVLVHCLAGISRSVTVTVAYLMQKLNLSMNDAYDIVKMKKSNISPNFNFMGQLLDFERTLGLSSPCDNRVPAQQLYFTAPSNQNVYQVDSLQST

[19] = target: T2, Low molecular weight phosphotyrosine protein phosphatase; type: functional; details: read-out: IC50_Mean; remark: listed apart in the source
[20] = target: T3, Tyrosine-protein phosphatase non-receptor type 22; assay: LYP1 Fluorescent Assay using OMFP substrate for In Vitro dose response studies. [Related pubchem assays (depositor defined):AID1779, AID1784, AID435024]
[21] = target: T4, Dual specificity protein phosphatase 3; assay: VHR1 phosphatase inhibitors, biochemical (AID 1878)
[22] = target: T3, Tyrosine-protein phosphatase non-receptor type 22; assay: PubChem AID 2135
[23] = target: T3, Tyrosine-protein phosphatase non-receptor type 22; type: functional
[24] = target: T3, Tyrosine-protein phosphatase non-receptor type 22; assay: PTPN22 lymphoid phosphatase activity blockers – biochemical, fluorescence intensity, uHTS (AID 1779)
[25] = target: T6, Carboxy-terminal domain RNA polymerase II polypeptide A small phosphatase 1 (Homo sapiens, UniProt Q9GZU7); assay: CTDSP1 inhibitors, concentration-response, biochemical, absorbance readout, ultra-high-throughput screen actives (AID 540297); type: functional
T6 sequence (Q9GZU7 whole entry): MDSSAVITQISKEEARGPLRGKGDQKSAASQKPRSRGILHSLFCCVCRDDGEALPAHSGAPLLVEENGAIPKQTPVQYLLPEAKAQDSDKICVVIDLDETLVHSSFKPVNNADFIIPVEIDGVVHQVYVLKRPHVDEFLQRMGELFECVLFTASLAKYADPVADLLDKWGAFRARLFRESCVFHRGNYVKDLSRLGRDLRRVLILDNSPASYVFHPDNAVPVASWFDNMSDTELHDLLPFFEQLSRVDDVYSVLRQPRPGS

[26] = target: T7, SUMO-activating enzyme (Homo sapiens, UniProt Q9UBT2); assay: blockers of UBC9-mediated SUMO conjugation – biochemical, AlphaScreen, SUMOylation inhibitor project, confirmation (AID 2018); type: functional
[27] = target: T7, SUMO-activating enzyme; assay: blockers of SAE1/SAE2–UBC9 SUMO transfer – biochemical, HTRF, uHTS, primary screen (AID 2006); type: protein-complex assay
[28] = target: T8, Coagulation factor XII (Homo sapiens, UniProt P00748); type: functional;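 also: activated factor XIIa alpha cleaving a fluorogenic AMC peptide substrate; inhibitor potency from loss of enzyme activity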
T8 sequence (P00748 whole entry): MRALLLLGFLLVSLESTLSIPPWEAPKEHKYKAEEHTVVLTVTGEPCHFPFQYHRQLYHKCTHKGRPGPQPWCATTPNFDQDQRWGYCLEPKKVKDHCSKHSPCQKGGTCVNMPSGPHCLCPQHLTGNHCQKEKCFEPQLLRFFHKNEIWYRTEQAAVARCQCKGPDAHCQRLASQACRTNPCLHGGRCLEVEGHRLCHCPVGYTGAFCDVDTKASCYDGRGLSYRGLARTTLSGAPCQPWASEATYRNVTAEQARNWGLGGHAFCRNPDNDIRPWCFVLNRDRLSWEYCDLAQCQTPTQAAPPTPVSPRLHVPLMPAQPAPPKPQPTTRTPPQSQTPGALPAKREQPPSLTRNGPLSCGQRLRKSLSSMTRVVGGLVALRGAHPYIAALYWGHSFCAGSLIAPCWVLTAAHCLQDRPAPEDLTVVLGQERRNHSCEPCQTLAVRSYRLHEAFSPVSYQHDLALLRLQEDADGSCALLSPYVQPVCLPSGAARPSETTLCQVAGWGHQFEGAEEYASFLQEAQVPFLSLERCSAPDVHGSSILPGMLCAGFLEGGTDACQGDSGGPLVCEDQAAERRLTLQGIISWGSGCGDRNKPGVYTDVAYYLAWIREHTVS

[29] = target: Lysine-specific demethylase 4C (Homo sapiens, UniProt Q9H3R0); assay: inhibition of JMJD2C H3K9me3 demethylation – biochemical, DELFIA europium, cherry-picked samples, dose response (AID 488835); type: functional
[30] = system: CHO-K1; assay: (§1) Counterscreen for antagonists of the orexin 1 receptor (OX1R; HCRTR1): Homogeneous time resolved fluorescence (HTRF)-based cell-based dose response assay to identify antagonists of the parental CHO-K1 cell line. [Related pubchem assays (depositor defined):AID434989, AID435008, AID463079, AID485270, AID492963, AID492964, AID492965, AID493232, AID504699, AID504701]; type: functional; details: Cricetulus griseus
[31] = target: T9, Orexin/Hypocretin receptor type 1 (Homo sapiens, UniProt O43613); assay: Homogeneous Time Resolved Fluorescence (HTRF)-based cell-based high throughput dose response assay for antagonists of the orexin 1 receptor (OX1R; HCRTR1). [Related pubchem assays (depositor defined):AID434989, AID435008, AID463079, AID485270, AID492963, AID492964, AID492965, AID493232, AID504717, AID504718]; type: functional
[32] = as §1, with “Fluorescence-based” for “Homogeneous time resolved fluorescence (HTRF)-based”, “cell-based high throughput” for “cell-based”, “CHO” for “CHO-K1”; type: functional
[33] = target: T9, Orexin/Hypocretin receptor type 1; assay: Fluorescence-based cell-based high throughput dose response assay for antagonists of the orexin 1 receptor (OX1R; HCRTR1). [Related pubchem assays (depositor defined):AID434989, AID435008, AID463079, AID485270, AID492963, AID492964, AID492965, AID493232, AID504717, AID504718]; type: functional
[34] = target: Lysine-specific demethylase 4A (Homo sapiens, UniProt O75164); assay: inhibition of JMJD2A H3K9me3 demethylation – biochemical, DELFIA europium, cherry-picked samples, selectivity assay for GASC-1 inhibitor project, dose response (AID 488840)
[35] = target: Signal transducer and activator of transcription 1-alpha/beta (Homo sapiens, UniProt P42224); assay: STAT3 blockade with qPCR and toxicity readouts – cell-based, STAT1 panel, cytotoxicity, late-stage follow-up, panel member STAT1 Inhibition (AID 2078)
[36] = target: Signal transducer and activator of transcription 3 (Homo sapiens, UniProt P40763); assay: STAT3 blockade with qPCR and toxicity readouts – cell-based, STAT1 panel, cytotoxicity, late-stage follow-up, panel member STAT3 Inhibition (AID 2078)
Chain of Signal transducer and activator of transcription 3 (P40763 whole entry): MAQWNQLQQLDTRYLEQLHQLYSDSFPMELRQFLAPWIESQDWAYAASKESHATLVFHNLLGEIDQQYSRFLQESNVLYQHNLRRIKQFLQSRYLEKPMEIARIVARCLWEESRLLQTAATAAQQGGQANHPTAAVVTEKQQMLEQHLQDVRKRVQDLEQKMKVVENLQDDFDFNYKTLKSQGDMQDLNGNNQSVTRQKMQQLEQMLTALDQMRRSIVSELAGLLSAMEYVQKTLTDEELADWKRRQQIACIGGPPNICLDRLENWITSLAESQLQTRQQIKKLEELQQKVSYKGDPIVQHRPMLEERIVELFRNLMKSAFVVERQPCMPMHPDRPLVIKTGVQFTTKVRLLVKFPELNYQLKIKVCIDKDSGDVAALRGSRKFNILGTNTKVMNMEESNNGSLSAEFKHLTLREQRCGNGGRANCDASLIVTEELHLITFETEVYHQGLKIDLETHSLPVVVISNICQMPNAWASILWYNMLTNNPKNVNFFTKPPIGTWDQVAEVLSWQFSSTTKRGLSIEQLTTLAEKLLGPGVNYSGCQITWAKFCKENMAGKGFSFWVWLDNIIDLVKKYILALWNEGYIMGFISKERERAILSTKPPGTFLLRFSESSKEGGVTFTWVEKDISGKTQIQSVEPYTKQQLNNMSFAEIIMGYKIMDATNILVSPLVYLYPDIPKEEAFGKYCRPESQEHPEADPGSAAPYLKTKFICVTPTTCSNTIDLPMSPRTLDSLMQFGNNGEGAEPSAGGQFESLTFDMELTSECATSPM

T9 sequence (O43613 whole entry): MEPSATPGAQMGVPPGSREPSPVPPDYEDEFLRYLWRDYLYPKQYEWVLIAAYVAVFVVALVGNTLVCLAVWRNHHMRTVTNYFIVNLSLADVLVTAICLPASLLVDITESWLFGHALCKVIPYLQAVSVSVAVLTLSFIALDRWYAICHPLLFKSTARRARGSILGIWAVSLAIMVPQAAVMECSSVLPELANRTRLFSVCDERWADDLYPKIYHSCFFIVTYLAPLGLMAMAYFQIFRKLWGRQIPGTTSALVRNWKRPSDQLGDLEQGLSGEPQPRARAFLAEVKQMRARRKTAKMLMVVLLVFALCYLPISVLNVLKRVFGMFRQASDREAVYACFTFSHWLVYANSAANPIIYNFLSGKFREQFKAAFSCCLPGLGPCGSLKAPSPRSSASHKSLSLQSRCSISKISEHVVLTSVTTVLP
T4 sequence (P51452 whole entry): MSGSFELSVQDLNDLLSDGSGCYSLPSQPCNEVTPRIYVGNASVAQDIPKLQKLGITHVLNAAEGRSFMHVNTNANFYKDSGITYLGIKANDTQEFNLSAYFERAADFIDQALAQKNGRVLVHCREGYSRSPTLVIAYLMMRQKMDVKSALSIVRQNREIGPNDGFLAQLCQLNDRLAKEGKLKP
T7 sequence (Q9UBE0 whole entry): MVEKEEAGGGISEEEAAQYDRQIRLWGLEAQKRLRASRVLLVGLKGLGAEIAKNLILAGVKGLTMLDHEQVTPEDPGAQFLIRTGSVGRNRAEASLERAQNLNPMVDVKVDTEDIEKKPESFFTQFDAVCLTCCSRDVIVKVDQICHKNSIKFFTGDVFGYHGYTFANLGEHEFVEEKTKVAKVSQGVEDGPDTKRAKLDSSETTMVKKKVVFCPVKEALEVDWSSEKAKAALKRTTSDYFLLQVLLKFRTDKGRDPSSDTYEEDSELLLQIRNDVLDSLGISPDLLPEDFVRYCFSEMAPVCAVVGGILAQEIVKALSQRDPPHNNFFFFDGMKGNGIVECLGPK
T7 sequence (Q9UBT2 whole entry): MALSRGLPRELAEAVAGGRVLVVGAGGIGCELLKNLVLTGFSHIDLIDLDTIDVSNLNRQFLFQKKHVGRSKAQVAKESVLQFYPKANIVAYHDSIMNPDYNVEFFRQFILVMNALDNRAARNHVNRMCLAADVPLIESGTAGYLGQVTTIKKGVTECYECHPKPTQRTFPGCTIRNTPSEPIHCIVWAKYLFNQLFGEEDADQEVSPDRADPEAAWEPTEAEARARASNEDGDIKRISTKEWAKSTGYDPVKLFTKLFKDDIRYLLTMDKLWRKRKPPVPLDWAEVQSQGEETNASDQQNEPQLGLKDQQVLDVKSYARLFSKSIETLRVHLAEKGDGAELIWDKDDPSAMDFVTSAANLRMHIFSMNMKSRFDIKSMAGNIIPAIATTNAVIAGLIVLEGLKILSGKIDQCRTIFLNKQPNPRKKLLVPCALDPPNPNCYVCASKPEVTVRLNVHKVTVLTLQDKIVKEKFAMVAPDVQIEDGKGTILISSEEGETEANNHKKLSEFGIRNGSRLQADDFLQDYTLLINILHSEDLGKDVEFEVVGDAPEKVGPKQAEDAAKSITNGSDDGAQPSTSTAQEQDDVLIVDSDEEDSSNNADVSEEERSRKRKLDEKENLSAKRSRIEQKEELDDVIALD
T2 sequence (P24666 whole entry): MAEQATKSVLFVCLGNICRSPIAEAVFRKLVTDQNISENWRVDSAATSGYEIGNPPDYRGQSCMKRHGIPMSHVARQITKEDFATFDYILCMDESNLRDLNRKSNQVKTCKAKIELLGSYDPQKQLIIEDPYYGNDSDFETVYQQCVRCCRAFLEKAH
Chain of Lysine-specific demethylase 4C (Q9H3R0 whole entry): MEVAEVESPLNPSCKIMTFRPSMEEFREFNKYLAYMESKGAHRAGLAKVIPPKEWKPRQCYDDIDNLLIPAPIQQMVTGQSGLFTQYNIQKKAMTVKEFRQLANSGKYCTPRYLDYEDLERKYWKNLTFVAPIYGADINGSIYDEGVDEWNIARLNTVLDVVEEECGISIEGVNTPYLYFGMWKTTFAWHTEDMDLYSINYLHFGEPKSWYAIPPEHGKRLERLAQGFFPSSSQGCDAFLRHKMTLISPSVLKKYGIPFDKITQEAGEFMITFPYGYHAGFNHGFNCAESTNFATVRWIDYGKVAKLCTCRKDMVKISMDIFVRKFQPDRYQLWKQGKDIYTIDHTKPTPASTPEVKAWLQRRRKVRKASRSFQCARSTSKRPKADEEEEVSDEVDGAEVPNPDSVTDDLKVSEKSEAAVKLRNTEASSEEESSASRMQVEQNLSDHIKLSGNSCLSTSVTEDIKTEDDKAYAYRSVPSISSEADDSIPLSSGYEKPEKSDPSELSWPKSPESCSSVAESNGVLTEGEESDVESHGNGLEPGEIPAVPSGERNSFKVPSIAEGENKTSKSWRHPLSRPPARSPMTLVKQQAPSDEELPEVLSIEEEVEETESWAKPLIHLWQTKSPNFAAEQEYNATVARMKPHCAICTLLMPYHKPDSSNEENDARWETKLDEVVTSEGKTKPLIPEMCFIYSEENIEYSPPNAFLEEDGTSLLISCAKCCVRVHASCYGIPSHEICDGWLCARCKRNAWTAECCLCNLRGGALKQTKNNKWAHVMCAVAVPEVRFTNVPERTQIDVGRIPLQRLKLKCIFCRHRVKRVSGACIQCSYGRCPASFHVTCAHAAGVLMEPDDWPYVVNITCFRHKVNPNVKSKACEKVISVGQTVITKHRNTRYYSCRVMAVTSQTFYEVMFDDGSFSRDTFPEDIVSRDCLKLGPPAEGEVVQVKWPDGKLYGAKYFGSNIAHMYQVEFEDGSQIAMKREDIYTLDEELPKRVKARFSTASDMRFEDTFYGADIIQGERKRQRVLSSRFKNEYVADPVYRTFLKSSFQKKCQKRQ
Chain of Tyrosine-protein phosphatase non-receptor type 12 (Q05209 whole entry): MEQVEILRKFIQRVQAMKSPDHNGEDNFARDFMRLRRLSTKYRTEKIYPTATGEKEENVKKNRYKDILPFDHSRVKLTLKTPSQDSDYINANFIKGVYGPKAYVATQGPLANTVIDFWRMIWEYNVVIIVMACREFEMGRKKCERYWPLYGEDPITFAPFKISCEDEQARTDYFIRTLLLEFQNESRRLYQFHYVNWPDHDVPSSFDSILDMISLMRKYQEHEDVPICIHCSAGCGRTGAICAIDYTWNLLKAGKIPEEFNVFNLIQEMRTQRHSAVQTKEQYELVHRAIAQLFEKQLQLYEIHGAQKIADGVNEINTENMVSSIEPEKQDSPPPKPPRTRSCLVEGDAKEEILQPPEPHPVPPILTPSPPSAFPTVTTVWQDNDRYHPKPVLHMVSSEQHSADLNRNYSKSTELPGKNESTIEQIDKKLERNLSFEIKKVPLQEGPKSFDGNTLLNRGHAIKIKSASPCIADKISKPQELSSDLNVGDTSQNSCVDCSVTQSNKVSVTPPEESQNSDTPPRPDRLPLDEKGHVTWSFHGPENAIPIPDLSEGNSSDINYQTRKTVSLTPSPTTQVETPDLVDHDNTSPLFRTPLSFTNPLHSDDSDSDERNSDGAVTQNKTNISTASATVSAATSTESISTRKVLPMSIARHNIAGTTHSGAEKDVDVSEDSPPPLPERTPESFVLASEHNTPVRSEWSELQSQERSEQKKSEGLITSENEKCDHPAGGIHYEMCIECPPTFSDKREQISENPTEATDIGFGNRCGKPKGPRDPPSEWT

O=C(CSc1nc(O)c2c(-c3ccccc3)csc2n1)Nc1ccccc1
active: IC50 [1] 16 µM | IC50 [2] 4.78 µM | IC50 [3] 1.93 µM | EC50 [4] 5.71 µM
inactive: IC50 [5] > 20 µM | IC50 [6] > 20 µM

Cc1ccc(/C=C/c2nc(O)c3c(C)c(C(=O)O)sc3n2)cc1[N+](=O)[O-]
inactive: IC50 [7] > 99 µM | IC50 [8] > 80 µM | IC50 [19] 32.7 µM
active: IC50 [9] 12.2 µM | IC50 [10] 6.19 µM | IC50 [11] 3.17 µM | IC50 [12] 11.1 µM | IC50 [13] 50.9 µM | IC50 [14] 2.92 µM | IC50 [15] 3.43 µM | IC50 [16] 10.7 µM | IC50 [17] 4.56 µM | IC50 [18] 8.48 µM | IC50 [20] 16.8 µM | IC50 [21] 1.62 µM | IC50 [22] 6.6 µM | IC50 [23] 11.2 µM | IC50 [24] 12.9 µM

COc1ccc(C2=NN(C(=O)CCCC(=O)O)C(c3cn(-c4ccccc4)nc3-c3ccccc3)C2)cc1 (stereo unspecified)
active: IC50 [25] 3.91 µM | IC50 [26] 19.8 µM | IC50 [27] 17.5 µM
inactive: IC50 [28] > 50 µM

CCCn1c(SCC(=O)NNC(=O)c2ccc(C)cc2)nnc1C(C)C
active: AC50 [29] 9.91 µM

Cn1cc(/C=C(\C#N)C(=O)Nc2ccccc2O)c2ccccc21
active: IC50 [31] 4.48 µM | IC50 [33] 5.57 µM
inactive: IC50 [30] > 66.2 µM | IC50 [32] 25 µM

O=c1nc(SCc2cccc(C(F)(F)F)c2)nc2ccccn12
inactive: AC50 [34] > 60 µM

c1ccc(CC2CCN(c3nc(CN4CCOCC4)nc4sc5c(c34)CCCC5)CC2)cc1
inactive: IC50 [35] > 55.7 µM | IC50 [36] > 55.7 µM
